Measurements taken from patent US20210085630A1, “PHARMACEUTICAL COMPOSITION AND USE THEREOF IN PREPARING DRUG FOR TREATING TUMOR MULTI-DRUG RESISTANCE” (SICHUAN JIUZHANG BIOLOGICAL SCIENCE AND TECHNOLOGY CO., LTD., priority 2018, published 2021).

Legend:
[1] = tested on: Opdivo-resistant Lewis lung cancer; experiment: Antitumor effect (tumor volume, weight, inhibition rate) in Opdivo-resistant Lewis lung cancer mice; format: in vivo; settings: for Tumor volume (cm^3): 30 mg/kg i.p. once a day, + Opdivo groups: test drug 5 days, then Opdivo 30 mg/kg every other day; for Tumor inhibition rate (%) / Tumor weight: 30 mg/kg i.p., + Opdivo groups 30 + 30 mg/kg
Method: (§1) The concentration of cell lines was adjusted to 1×10^7/ml with the culture medium. 1×10^7/ml of cells were subcutaneously injected into the right armpit of mice, 0.1 ml per mouse.
(§2) The model mice were randomly divided into groups, eight for one group, and included test drug group 1, test drug group 2, test drug group 3, test drug group 4, positive drug Opdivo group, single drug chlorogenic acid group, test drug 1+Opdivo group, test drug 2+Opdivo group, test drug 3+Opdivo group, test drug 4+Opdivo group, and negative group, respectively.
(§3) Test drug group: from the second day after stopping administration to the model, the group received drug by intraperitoneal injection, once a day, 30 mg/kg.
(§4) Single drug group: from the second day after stopping administration to the model, the group received drug by intraperitoneal injection, once a day, 30 mg/kg.
(§5) Test drug+Opdivo group: from the second day after stopping administration to the model, the group received the test drug by intraperitoneal injection, once a day, and the test drug was stopped after administrating for 5 consecutive days; on the next day, Opdivo was intraperitoneally injected, once every other day, with the dosage of 30 mg/kg.
(§6) Positive drug group: once every other day, 30 mg/kg.
(§7) Negative group: normal saline was intraperitoneally injected, once a day, the same amount of saline.
(§8) Before each administration, the tumor volume was measured, and the experiment was stopped when the average tumor volume of negative group was greater than 1.5 cm^3.
(§9) After completion of administration, the experiment was stopped, and the mice were killed by cervical dislocation and weighed. The tumor was stripped and weighed, to calculate the tumor inhibition rate.

[2] = tested on: CD4+T and CD8+T lymphocytes; experiment: Number of CD4+T and CD8+T lymphocytes in transplanted tumor of multidrug-resistant Lewis lung cancer mice; format: in vivo; settings: average of 6 high power fields
Method: (§10) The number of CD4+T and CD8+T lymphocytes was analyzed by immunofluorescence staining, and the average number of CD4+T and CD8+T cells infiltrated in 6 high power fields was counted.

[3] = tested on: CD4+T and CD8+T lymphocytes; experiment: Number of CD4+T and CD8+T cells (immunofluorescence), drug-resistant B16 melanoma transplanted tumor; format: in vivo; settings: transplanted tumor of drug-resistant B16 melanoma in mice, average of 6 high power fields
Method: as §10

[4] = tested on: drug-resistant A375 melanoma cell lines; experiment: Reversal of dacarbazine resistance in drug-resistant A375 cells (MTT); format: cell-based, human; settings: test drug 30 μg/ml; for Reversal index: IC50 before reversal/IC50 after reversal, drug-resistant A375
Method: The culture and experimental methods of cells were the same as above.
In the experiment, there are following groups: drug-resistant cell negative group, drug-resistant cells+test drug group 1 (30 μg/ml), drug-resistant cells+test drug group 2 (30 μg/ml), drug-resistant cells+test drug group 3 ([…]), drug-resistant cells+test drug group 4 (30 μg/ml), drug-resistant cells+test drug group 5 (30 μg/ml), drug-resistant cells+test drug group 6 (30 μg/ml).
Each test drug group was added with different concentrations of dacarbazine, each concentration including 3 replicate wells, and the OD value of each well was measured, to observe whether the cytotoxicity was shown. Each test drug and dacarbazine were respectively used to act on drug resistant cells, so as to compare with the effects of dacarbazine administrated alone on drug-resistant cells, and the IC50 value of dacarbazine against drug-resistant cell lines was calculated, as well as the IC50 value of each test drug after reversing drug-resistant cell lines.
Reversal index=IC50 value before reversal/IC50 value after reversal.

[5] = tested on: gemcitabine-resistant Lewis lung cancer; experiment: Tumor weight and inhibition rate, transplanted gemcitabine-resistant Lewis lung cancer; format: in vivo; settings: gemcitabine-resistant Lewis lung cancer mice; test drug 30 mg/kg i.p. once a day 5 days, then gemcitabine 300 mg/kg every other day; positive drug gemcitabine 300 mg/kg
Method: Lewis lung cancer cell lines were induced by the increased gradient concentration of gemcitabine, and established by clone screening and cultured without drug before the experiment.
(§11) After the drug was removed from the drug-resistant cell lines, the cell concentration was adjusted to 1×10^7/ml with the culture medium. 1×10^7/ml of cells were subcutaneously injected into the right armpit of mice, 0.1 ml per mouse.
(§12) After the average diameter of tumor reached […], the mice were randomly divided into test drug group 1, test drug group 2, test drug group 3, test drug group 4, test drug group 5, test drug group 6, positive drug group, and negative group, respectively.
(§13) Test drug group: the test drug group was first intraperitoneally injected, once a day, 30 mg/kg/time, for 5 consecutive days; administration was stopped, and the positive drug was given by intraperitoneal injection on the next day; wherein the positive drug dacarbazine was administrated once every other day, 60 mg/kg/time; wherein the positive drug gemcitabine was given once every other day, 300 mg/kg/time.
(§14) Positive drug group: positive drug dacarbazine was given once every other day, 60 mg/kg/time; positive drug gemcitabine was given once every other day, 300 mg/kg/time.
(§15) Negative group: normal saline was intraperitoneally injected, once a day, for 15 consecutive days.
as §9

[6] = tested on: Opdivo-resistant B16 melanoma; experiment: Antitumor effect (tumor volume, weight, inhibition rate) in Opdivo-resistant B16 melanoma mice; format: in vivo; settings: for Tumor volume (cm^3): 30 mg/kg i.p. once a day, + Opdivo groups: test drug 5 days, then Opdivo 30 mg/kg every other day; for Tumor inhition rate (%) / Tumor weight: 30 mg/kg i.p., + Opdivo groups 30 + 30 mg/kg
Method: as §1, §2, §3, §4, §5, §6, §7, §8, §9

[7] = tested on: dacarbazine-resistant B16 melanoma; experiment: Tumor weight and inhibition rate, transplanted dacarbazine-resistant B16 melanoma; format: in vivo; settings: dacarbazine-resistant B16 melanoma mice; test drug 30 mg/kg i.p. once a day 5 days, then dacarbazine 60 mg/kg every other day; positive drug dacarbazine 60 mg/kg
Method: B16 melanoma cell lines were induced by the increased gradient concentration of dacarbazine, and established by clone screening and cultured without drug before the experiment.
as §11, §12, §13, §14, §15, §9

[8] = tested on: drug-resistant A549 lung cancer cell lines; experiment: MTT: non-cytotoxic concentration of test drugs, drug-resistant A549; format: cell-based, human; settings: 48 h
Method: The culture and treatment methods of cells and drug-resistant cells were the same as above. For the experiment, there were eight groups: blank group, control group and test-drug groups. […] The plates were placed in an incubator and incubated for 48 h, then 5 mg/ml MTT (20 μl) was added to each well, and the plate was further incubated for 4 h.

PD-1/PD-L1 [9] = experiment: PD-1/PD-L1 expression rate (immunohistochemical SP method), drug-resistant Lewis lung cancer tumor tissue; format: in vivo; settings: transplanted tumor tissues of drug-resistant Lewis lung cancer in mice, Example 3 regimen
Description: (§16) The positive expression rate of PD-1/PD-L1 in tumor tissues was detected by immunohistochemical SP method.

[10] = tested on: CD4+T and CD8+T lymphocytes; experiment: Number of CD4+T and CD8+T cells in Opdivo-resistant Lewis lung cancer mice; format: in vivo; settings: drug-resistant (Opdivo) Lewis lung cancer mice, average of 6 high power fields
Method: as §10

PD-1/PD-L1 [11] = experiment: PD-1/PD-L1 expression rate in transplanted tumor tissues, multidrug resistance model; format: in vivo; settings: transplanted tumor tissues of B16 melanoma mice with multidrug resistance (as titled), Example 5 regimen
Description: as §16

[12] = tested on: drug-resistant A375 melanoma cell lines; experiment: MTT: non-cytotoxic concentration of test drugs, drug-resistant A375; format: cell-based, human; settings: 48 h
Method: The culture and treatment methods of cells and drug-resistant cells were the same as above.
For the experiment, there were eight groups: blank group, control group and test-drug groups. […] The plates were placed in an incubator and incubated for 48 h, then 5 mg/ml MTT (20 μl) was added to each well, and the plate was further incubated for 4 h.

Structure (SMILES) | Tumor volume (cm^3) [1] [cm^3] | Tumor inhibition rate (%) [1] [%] | Tumor weight [1] [g] | CD4 + T cells (number) [2] | CD8 + T cells (number) [2] | CD4 + T cells (number) [3] | CD8 + T cells (number) [3] | Reversal index [4] | reversal effect on the drug-resistant A375 cell lines (in words) [4] | Tumor inhibitory rate (%) [5] [%] | Tumor weight (g) [5] | Tumor volume (cm^3) [6] [cm^3] | Tumor inhition rate (%) [6] [%] | Tumor weight [6] [g] | Tumor inhibition rate (%) [7] [%] | Non-cytotoxic concentration (all inhibition rates <10%) [8] [µg/mL] | Expression rate of PD-1/PD-L1, Positive PD-L1 (PD-1/PD-L1 [9]) [%] | CD4 + T cells (number) [10] | CD8 + T cells (number) [10] | Expression rate of PD-1/PD-L1, Positive PD-L1 (PD-1/PD-L1 [11]) [%] | further results
O=C(/C=C/c1ccc(O)c(O)c1)O[C@@H]1C[C@](O)(C(=O)O)C[C@@H](O)[C@H]1O [Chlorogenic acid, chlorogenic acid] | 1.592 ± 0.704 | 3.18 | 2.46 ± 0.72 | 79.24 ± 4.06 | 126.52 ± 11.85 | 69.43 ± 4.72 | 88.62 ± 5.38 | 1.17 | no significant reversal effect | 10.48 | 2.05 ± 0.79 ^ g | 1.788 ± 0.539 | 3.18 | 2.74 ± 0.59 | 19.32 | 1256 | 81.83 | 66.52 ± 4.63 | 119.38 ± 6.55 | 72.26 | continuous treatment effect / effect on tumor volume control (in words) [1]: not obvious; continuous treatment effect / effect on tumor volume control (in words) [6]: not obvious; Tumor weight (g) [7]: 2.13 ± 0.52*Δ g; Non-cytotoxic concentration (all inhibition rates <10%) [12]: 830 µg/mL
O=C(/C=C/c1ccc(O)cc1)O[C@@H]1C[C@](O)(C(=O)O)C[C@@H](O)[C@H]1O [Coumaroylquinic acid, coumaroylquinic acid] | 1.584 ± 0.424 | 3.88 | 2.48 ± 0.55 | 79.11 ± 5.36 | 122.08 ± 14.36 | 62.83 ± 7.51 | 91.53 ± 3.54 | 1.06 | no significant reversal effect | 5.68 | 2.16 ± 0.41 ^ g | 1.762 ± 0.947 | 4.24 | 2.71 ± 0.46 | 15.91 | 1142 | 79.23 | 65.12 ± 5.17 | 113.64 ± 8.23 | 73.39 | Tumor weight [7]: 2.22 ± 0.26 g; Non-cytotoxic concentration (all inhibition rates <10%) [12]: 862 µg/mL
